Data published in US20120202794A1 (priority 2011, published 2012).

Assays:
HCV Replicon 1b = assay: HCV inhibition assay, HCV replicon 1b (Clone A or ET-lunet cells; RT-PCR or luciferase reporter); type: cell-based; conditions: Hepatitis C virus, 96 h, HCV replicon 1b; 4 days incubation; read-out: Replicon 1b potency EC90
Method in brief: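 Inhibition read either as luciferase signal (ET replicon) or as HCV 5′-NTR RNA by RT-PCR relative to rRNA, % = (1−2^−ΔΔCt)×100, against DMSO controls, giving EC50 and EC90. Cells: Clone A or ET-lunet, seeded 1500 or 3000/well, exposed 4 days at 37 °C, 5% CO2, 0.5% DMSO.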

[1] = Cell cytotoxicity assay (MTS), CC90 as reported in Table 1, cell line not stated; type: cell-based; conditions: human; MTS assay; 8 days incubation; cell line not given
Method in brief: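 MTS read-out (490 nm, 2 h dye step) after 8-day exposure at 37° C. Huh7, HepG2, BxPC3 were seeded at 2×10^3 and CEM at 5×10^3 cells/well, with compound serially diluted from 100 μM. CC90 comes from comparison with untreated control wells.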

C/C=C/[C@H]1CN(C(=O)[C@@H]2C[C@H]2c2ccc(F)cc2)[C@@H](CC(C)C)C(=O)N1 [Compound 452, (3S,6S)-4-((1R,2R)-2-(4-fluorophenyl)cyclopropanecarbonyl)-3-isobutyl-6-((E)-prop-1-en-1-yl)piperazin-2-one]
EC90 (HCV Replicon 1b): 48 nM
CC90 at 8 days [1]: > 10 µM

Cc1ccc([C@H]2CN(C(=O)c3cc(-c4ccc(F)cc4)on3)[C@@H](CC(C)C)C(=O)N2)s1 [Compound 453, (3S,6R)-4-(5-(4-fluorophenyl)isoxazole-3-carbonyl)-3-isobutyl-6-(5-methylthiophen-2-yl)piperazin-2-one]
EC90 (HCV Replicon 1b): 680 nM
CC90 at 8 days [1]: > 10 µM

CC(C)C[C@H]1C(=O)NC(C2CCOCC2)CN1C(=O)c1cc(-c2ccc(F)cc2)on1 (stereo partly drawn) [Compound 456, (3S)-4-(5-(4-fluorophenyl)isoxazole-3-carbonyl)-3-isobutyl-6-(tetrahydro-2H-pyran-4-yl)piperazin-2-one]
EC90 (HCV Replicon 1b): 194 nM
CC90 at 8 days [1]: > 10 µM

CSC[C@H]1C(=O)N[C@@H](c2ccccc2)CN1C(=O)[C@@H]1C[C@H]1c1ccc(F)cc1 [Compound 460, (3R,6S)-4-((1R,2R)-2-(4-fluorophenyl)cyclopropanecarbonyl)-3-((methylthio)-methyl)-6-phenylpiperazin-2-one]
EC90 (HCV Replicon 1b): 1160 nM
CC90 at 8 days [1]: > 10 µM

C=CC[C@H]1C(=O)N[C@@H](c2ccccc2)CN1C(=O)[C@@H]1C[C@H]1c1ccc(F)cc1 [Compound 462, (3S,6S)-3-allyl-4-((1R,2R)-2-(4-fluorophenyl)cyclopropanecarbonyl)-6-phenyl-piperazin-2-one]
EC90 (HCV Replicon 1b): 1520 nM
CC90 at 8 days [1]: > 10 µM

CC(C)C[C@H]1C(=O)N[C@@H](C2CCC2)CN1C(=O)[C@@H]1C[C@H]1c1ccc(F)cc1 [Compound 464, (3S,6S)-6-cyclobutyl-4-((1R,2R)-2-(4-fluorophenyl)cyclopropanecarbonyl)-3-isobutylpiperazin-2-one]
EC90 (HCV Replicon 1b): 830 nM
CC90 at 8 days [1]: > 10 µM

C=CC[C@H]1C(=O)N[C@@H](c2ccccc2)CN1C(=O)c1noc(-c2ccc(F)cc2)n1 [Compound 465, (3S,6S)-3-allyl-4-(5-(4-fluorophenyl)-1,2,4-oxadiazole-3-carbonyl)-6-phenyl-piperazin-2-one]
EC90 (HCV Replicon 1b): 290 nM
CC90 at 8 days [1]: > 10 µM

CSC[C@H]1C(=O)N[C@@H](c2ccccc2)CN1C(=O)c1noc(-c2ccc(F)cc2)n1 [Compound 466, (3R,6S)-4-(5-(4-fluorophenyl)-1,2,4-oxadiazole-3-carbonyl)-3-((methylthio)methyl)-6-phenylpiperazin-2-one]
EC90 (HCV Replicon 1b): 650 nM
CC90 at 8 days [1]: > 10 µM

CC(C)C[C@H]1C(=O)N[C@@H](C2CCC2)CN1C(=O)c1noc(-c2ccc(F)cc2)n1 [Compound 467, (3S,6S)-6-cyclobutyl-4-(5-(4-fluorophenyl)-1,2,4-oxadiazole-3-carbonyl)-3-isobutylpiperazin-2-one]
EC90 (HCV Replicon 1b): 250 nM
CC90 at 8 days [1]: > 10 µM

CSC[C@H]1C(=O)N[C@@H](c2ccccc2)CN1C(=O)c1cc(-c2ccc(F)cc2)on1 [Compound 468, (3R,6S)-4-(5-(4-fluorophenyl)isoxazole-3-carbonyl)-3-((methylthio)methyl)-6-phenylpiperazin-2-one]
EC90 (HCV Replicon 1b): 690 nM
CC90 at 8 days [1]: > 10 µM

O=C1N[C@@H](c2ccccc2)CN(C(=O)[C@@H]2C[C@H]2c2ccc(F)cc2)[C@H]1c1cccs1 [Compound 469, (3R,6S)-4-((1R,2R)-2-(4-fluorophenyl)cyclopropanecarbonyl)-6-phenyl-3-(thiophen-2-yl)piperazin-2-one]
EC90 (HCV Replicon 1b): 1060 nM
CC90 at 8 days [1]: > 10 µM

O=C1N[C@@H](c2ccccc2)CN(C(=O)c2cc(-c3ccc(F)cc3)on2)[C@H]1c1cccs1 [Compound 471, (3R,6S)-4-(5-(4-fluorophenyl)isoxazole-3-carbonyl)-6-phenyl-3-(thiophen-2-yl)piperazin-2-one]
EC90 (HCV Replicon 1b): 570 nM
CC90 at 8 days [1]: > 10 µM

O=C1N[C@@H](c2ccccc2)CN(C(=O)c2noc(-c3ccc(F)cc3)n2)[C@H]1c1cccs1 [Compound 472, (3R,6S)-4-(5-(4-fluorophenyl)-1,2,4-oxadiazole-3-carbonyl)-6-phenyl-3-(thiophen-2-yl)piperazin-2-one]
EC90 (HCV Replicon 1b): 1200 nM
CC90 at 8 days [1]: > 10 µM

CC(C)C[C@H]1C(=O)N[C@H](C2CCOCC2)CN1C(=O)c1noc(-c2ccc(F)cc2)n1 [Compound 473, (3S,6R)-4-(5-(4-fluorophenyl)-1,2,4-oxadiazole-3-carbonyl)-3-isobutyl-6-(tetrahydro-2H-pyran-4-yl)piperazin-2-one]
EC90 (HCV Replicon 1b): > 10000 nM
CC90 at 8 days [1]: > 10 µM

CC(C)C[C@H]1C(=O)N[C@@H](C2CCOCC2)CN1C(=O)c1noc(-c2ccc(F)cc2)n1 [Compound 474, (3S,6S)-4-(5-(4-fluorophenyl)-1,2,4-oxadiazole-3-carbonyl)-3-isobutyl-6-(tetrahydro-2H-pyran-4-yl)piperazin-2-one]
EC90 (HCV Replicon 1b): 350 nM
CC90 at 8 days [1]: > 10 µM

CC(C)C[C@H]1C(=O)N[C@H](C2CCOCC2)CN1C(=O)[C@@H]1C[C@H]1c1ccc(F)cc1 [Compound 475, (3S,6R)-4-((1R,2R)-2-(4-fluorophenyl)cyclopropanecarbonyl)-3-isobutyl-6-(tetrahy-dro-2H-pyran-4-yl)piperazin-2-one]
EC90 (HCV Replicon 1b): > 10000 nM
CC90 at 8 days [1]: > 10 µM

CC(C)C[C@H]1C(=O)N[C@@H](C2CCOCC2)CN1C(=O)[C@@H]1C[C@H]1c1ccc(F)cc1 [Compound 476, (3S,6S)-4-((1R,2R)-2-(4-fluoro-phenyl)cyclopropanecarbonyl)-3-isobutyl-6-(tetrahydro-2H-pyran-4-yl)piperazin-2-one]
EC90 (HCV Replicon 1b): 230 nM
CC90 at 8 days [1]: > 10 µM

CC(C)C[C@H]1C(=O)N[C@H](c2ccco2)CN1C(=O)c1cc(-c2ccc(F)cc2)on1 [Compound 483, (3S,6S)-4-(5-(4-fluorophenyl)isoxazole-3-carbonyl)-6-(furan-2-yl)-3-isobutyl-piperazin-2-one]
EC90 (HCV Replicon 1b): > 10000 nM
CC90 at 8 days [1]: > 10 µM

CC(C)C[C@H]1C(=O)N[C@@H](c2ccco2)CN1C(=O)c1cc(-c2ccc(F)cc2)on1 [Compound 484, (3S,6R)-4-(5-(4-fluorophenyl)isoxazole-3-carbonyl)-6-(furan-2-yl)-3-isobutylpiperazin-2-one]
EC90 (HCV Replicon 1b): 180 nM
CC90 at 8 days [1]: > 10 µM

CC(C)C[C@H]1C(=O)N[C@H](c2ccc(Cl)s2)CN1C(=O)c1cc(-c2ccc(F)cc2)on1 [Compound 485, (3S,6S)-6-(5-chlorothiophen-2-yl)-4-(5-(4-fluorophenyl)isoxazole-3-carbonyl)-3-isobutylpiperazin-2-one]
EC90 (HCV Replicon 1b): > 10000 nM
CC90 at 8 days [1]: > 10 µM

CC(C)C[C@H]1C(=O)N[C@@H](c2ccc(Cl)s2)CN1C(=O)c1cc(-c2ccc(F)cc2)on1 [Compound 488, (3S,6R)-6-(5-chlorothiophen-2-yl)-4-(5-(4-fluorophenyl)isoxazole-3-carbonyl)-3-isobutylpiperazin-2-one]
EC90 (HCV Replicon 1b): 700 nM
CC90 at 8 days [1]: > 10 µM

CCC[C@H]1C(=O)N[C@@H](c2cccs2)CN1C(=O)c1cc(-c2ccc(F)cc2)on1 [Compound 491, (3S,6R)-4-(5-(4-fluorophenyl)isoxazole-3-carbonyl)-3-propyl-6-(thiophen-2-yl)piper-azin-2-one]
EC90 (HCV Replicon 1b): 250 nM
CC90 at 8 days [1]: > 10 µM
